From patent US6017911A, “Pyridonecarboxylic acid derivatives and intermediates for the synthesis thereof” (Dainippon Pharmaceutical Co., Ltd., priority 1996, dated 2000)
≈ marks a conversion by molar mass, not a printed value.

Legend:
Format in all cases: cell-based
[1] = test system: Escherichia coli NIHJ JC-2; assay: In vitro antibacterial activity (MIC), Escherichia coli NIHJ JC-2; conditions: NIHJJC2, read-out: Minimum inhibitory concentration (MIC)
[2] = test system: Staphylococcus aureus MS16405; assay: In vitro antibacterial activity (MIC), Staphylococcus aureus MS16405; conditions: Staphylococcus aureus MS16405; read-out: Minimum inhibitory concentration (MIC)
[3] = test system: Pseudomonas aeruginosa No 12; assay: In vitro antibacterial activity (MIC), Pseudomonas aeruginosa No 12; conditions: NO12, read-out: Minimum inhibitory concentration (MIC)
[4] = test system: Staphylococcus aureus 50774; assay: In vitro antibacterial activity (MIC), Staphylococcus aureus 50774; conditions: Staphylococcus aureus 50774; read-out: Minimum inhibitory concentration (MIC)

For `Nc1c(F)c(N2C[C@@H](N)[C@H]3OCCC[C@H]32)c(F)c2c1c(=O)c(C(=O)O)cn2C1CC1` (relative stereo) [Example 21], the MIC [1] was 0.013 µg/mL (≈ 0.0309 µM), the MIC [2] was 0.78 µg/mL (≈ 1.86 µM) and the MIC [3] was 0.39 µg/mL (≈ 0.928 µM). The MIC [4] was ≤ 0.003 µg/mL.
For `N[C@H]1CN(c2nc3c(cc2F)c(=O)c(C(=O)O)cn3C2CC2)[C@@H]2CCO[C@@H]21` (relative stereo) [Example 22], the MIC [1] was ≤ 0.003 µg/mL, the MIC [3] was 0.39 µg/mL (≈ 1.04 µM) and the MIC [4] was 0.05 µg/mL (≈ 0.134 µM).
For `COc1c(N2C[C@@H](N)[C@H]3OCC[C@H]32)c(F)cc2c(=O)c(C(=O)O)cn(C3CC3)c12` (relative stereo) [Example 23], the MIC [1] was 0.025 µg/mL (≈ 0.062 µM), the MIC [2] was 0.78 µg/mL (≈ 1.93 µM) and the MIC [3] was 0.78 µg/mL (≈ 1.93 µM). The MIC [4] was ≤ 0.003 µg/mL.
In the case of `Cc1c(F)c(N2C[C@H](N)[C@H]3OCC[C@H]32)c(C)c2c1c(=O)c(C(=O)O)cn2C1CC1` (relative stereo) [Example 24], the MIC [1] is reported as 0.025 µg/mL (≈ 0.0623 µM), the MIC [2] is reported as 1.56 µg/mL (≈ 3.89 µM) and the MIC [3] is reported as 0.78 µg/mL (≈ 1.94 µM). The MIC [4] was 0.013 µg/mL (≈ 0.0324 µM).
`N[C@H]1CN(c2cc3c(cc2F)c(=O)c(C(=O)O)cn3C2CC2)[C@@H]2CCO[C@@H]21` (relative stereo) [Example 26] was tested, and the MIC [1] was 0.013 µg/mL (≈ 0.0348 µM), the MIC [3] was 0.39 µg/mL (≈ 1.04 µM) and the MIC [4] was 0.05 µg/mL (≈ 0.134 µM).
For `C#Cc1c(N2C[C@H](N)[C@H]3OCC[C@H]32)c(F)cc2c(=O)c(C(=O)O)cn(C3CC3)c12` (relative stereo) [Example 27], the MIC [1] was 0.025 µg/mL (≈ 0.0629 µM), the MIC [2] was 1.56 µg/mL (≈ 3.93 µM) and the MIC [3] was 1.56 µg/mL (≈ 3.93 µM). For the same compound, the MIC [4] was 0.025 µg/mL (≈ 0.0629 µM).
In the case of `N[C@@H]1CN(c2nc3c(cc2F)c(=O)c(C(=O)O)cn3-c2ccc(F)cc2F)[C@@H]2CCO[C@H]12` (relative stereo) [Example 29], the MIC [1] is reported as 0.025 µg/mL (≈ 0.056 µM), the MIC [3] is reported as 0.39 µg/mL (≈ 0.874 µM) and the MIC [4] is reported as 0.025 µg/mL (≈ 0.056 µM).
Work on `Cc1c(F)c(N2C[C@@H](N)[C@H]3OCCC[C@H]32)c(C#N)c2c1c(=O)c(C(=O)O)cn2C1CC1` (relative stereo) [Example 30] yielded an MIC [1] of 0.05 µg/mL (≈ 0.117 µM), an MIC [2] of 3.13 µg/mL (≈ 7.34 µM) and an MIC [3] of 0.78 µg/mL (≈ 1.83 µM). For the same compound, the MIC [4] was 0.013 µg/mL (≈ 0.0305 µM).
`COc1c(N2C[C@@H](N)[C@H]3OCCC[C@H]32)c(F)c(N)c2c(=O)c(C(=O)O)cn(C3CC3)c12` (relative stereo) [Example 32] showed an MIC [1] of 0.1 µg/mL (≈ 0.231 µM), an MIC [2] of 0.78 µg/mL (≈ 1.8 µM) and an MIC [3] of 1.56 µg/mL (≈ 3.61 µM). The MIC [4] was 0.013 µg/mL (≈ 0.0301 µM).
In the case of `C=Cc1c(N2C[C@H](N)[C@H]3OCC[C@H]32)c(F)cc2c(=O)c(C(=O)O)cn(C3CC3)c12` (relative stereo) [Example 33], the MIC [1] is reported as 0.05 µg/mL (≈ 0.125 µM), the MIC [2] is reported as 1.56 µg/mL (≈ 3.91 µM) and the MIC [3] is reported as 3.13 µg/mL (≈ 7.84 µM). It also gave an MIC [4] of 0.025 µg/mL (≈ 0.0626 µM).
`N#Cc1c(N2C[C@@H](N)[C@H]3OCCC[C@H]32)c(F)cc2c(=O)c(C(=O)O)cn(C3CC3)c12` (relative stereo) [Example 34] was tested, and the MIC [1] was 0.05 µg/mL (≈ 0.121 µM), the MIC [2] was 6.25 µg/mL (≈ 15.2 µM) and the MIC [3] was 1.56 µg/mL (≈ 3.78 µM). For the same compound, the MIC [4] was 0.05 µg/mL (≈ 0.121 µM).
`CN[C@@H]1CN(c2c(F)cc3c(=O)c(C(=O)O)cn(C4CC4)c3c2OC)[C@@H]2CCO[C@@H]21` (relative stereo) [Example 35] showed an MIC [1] of 0.1 µg/mL (≈ 0.24 µM), an MIC [2] of 6.25 µg/mL (≈ 15 µM) and an MIC [3] of 3.13 µg/mL (≈ 7.5 µM). It also gave an MIC [4] of 0.025 µg/mL (≈ 0.0599 µM).
Compound `N[C@@H]1CN(c2c(F)cc3c(=O)c(C(=O)O)cn(C4CC4)c3c2OC(F)F)[C@@H]2CCO[C@H]12` (relative stereo) [Example 37] has an MIC [1] of 0.1 µg/mL (≈ 0.228 µM), an MIC [2] of 6.25 µg/mL (≈ 14.2 µM) and an MIC [3] of 3.13 µg/mL (≈ 7.12 µM). The MIC [4] was 0.05 µg/mL (≈ 0.114 µM).
Work on `N#Cc1c(N2C[C@H](N)[C@H]3OCC[C@H]32)c(F)cc2c(=O)c(C(=O)O)cn(C3CC3)c12` (relative stereo) [Example 38] yielded an MIC [1] of 0.05 µg/mL (≈ 0.126 µM), an MIC [3] of 3.13 µg/mL (≈ 7.86 µM) and an MIC [4] of 0.1 µg/mL (≈ 0.251 µM).
With `Cc1c(F)c(N2C[C@H](N)[C@H]3OCC[C@H]32)nc2c1c(=O)c(C(=O)O)cn2-c1ccc(F)cc1F` (relative stereo) [Example 39, 7-[(1R*,5R*,8S*)-8-amino-2-oxa-6-azabicyclo[3.3.0]oct-6-yl]-6-fluoro-1-(2,4-difluorophenyl)-1,4-dihydro-5-methyl-4-oxo-1,8-naphthyridine-3-carboxylic acid] the MIC [1] was 0.2 µg/mL (≈ 0.434 µM), the MIC [2] was 3.13 µg/mL (≈ 6.8 µM) and the MIC [3] was 0.78 µg/mL (≈ 1.69 µM). It also gave an MIC [4] of 0.025 µg/mL (≈ 0.0543 µM).
With `COc1c(N2C[C@@H](N)[C@H]3OC(C)C[C@H]32)c(F)cc2c(=O)c(C(=O)O)cn(C3CC3)c12` (relative stereo) [Example 40, 7-[(1R*,5R*,8R*)-8-amino-3-methyl-2-oxa-6-azabicyclo[3.3.0]oct-6-yl]-1-cyclopropyl-6-fluoro-1,4-dihydro-8-methoxy-4-oxoquinoline-3-carboxylic acid] the MIC [1] was 0.1 µg/mL (≈ 0.24 µM), the MIC [2] was 1.56 µg/mL (≈ 3.74 µM) and the MIC [3] was 3.13 µg/mL (≈ 7.5 µM). It also gave an MIC [4] of 0.025 µg/mL (≈ 0.0599 µM).
